Results taken from ChEMBL document CHEMBL4813985, “Lead optimization generates selenium-containing miconazole CYP51 inhibitors with improved pharmacological profile for the treatment of fungal infections” (Eur J Med Chem, 2021).
Values after ≈ are worked out from the molar mass of the structure shown.

Key:
[1] = system: Cryptococcus neoformans; assay: Antifungal activity against Cryptococcus neoformans CMGCC2.3161 measured after 72 hrs by broth microdilution assay; type: functional
[2] = system: Candida albicans; assay: Antifungal activity against fluconazole-resistant Candida albicans 17# assessed as inhibition of microbial growth after 24 hrs by broth microdilution method; type: functional
[3] = system: Candida albicans; assay: Antifungal activity against fluconazole-resistant Candida albicans CaR assessed as inhibition of microbial growth after 24 hrs by broth microdilution method; type: functional
[4] = system: [Candida] zeylanoides; assay: Antifungal activity against Candida zeylanoides CMGCC2.3739 measured after 24 hrs by broth microdilution assay; type: functional; settings: Dujonia zeylanoides
[5] = system: Candida albicans; assay: Potency index, ratio of fluconazole MIC to test compound MIC for Candida albicans CPCC400616 measured after 24 hrs by broth microdilution assay; type: functional
[6] = Hemolytic activity in rabbit RBC assessed as hemolysis ratio at 4 ug/ml measured after 3 hrs by microplate reader assay relative to control; type: ADME, cell-based, Oryctolagus cuniculus, Erythrocyte; settings: rabbit red blood cells (erythrocytes), at 4 µg/mL, read-out: Activity
[7] = system: Nakaseomyces glabratus; assay: Antifungal activity against Candida glabrata measured after 24 hrs by broth microdilution assay; type: functional
[8] = system: Candida albicans; assay: Antifungal activity against fluconazole-resistant Candida albicans 904 assessed as inhibition of microbial growth after 24 hrs by broth microdilution method; type: functional
[9] = Hemolytic activity in rabbit RBC assessed as hemolysis ratio at 2 ug/ml measured after 3 hrs by microplate reader assay relative to control; type: ADME, cell-based, Oryctolagus cuniculus, Erythrocyte; settings: rabbit red blood cells (erythrocytes), at 2 µg/mL, read-out: Activity
[10] = system: Candida albicans; assay: Antifungal activity against fluconazole-resistant Candida albicans 901 assessed as inhibition of microbial growth after 24 hrs by broth microdilution method; type: functional
[11] = system: HL-60; assay: Cytotoxicity against human HL-60 cells assessed as reduction in cell viability incubated for 96 hrs by MTT assay; type: cell-based; settings: HL-60, 96 h
[12] = system: MCF-10A; assay: Cytotoxicity against human MCF-10A cells assessed as reduction in cell viability incubated for 96 hrs by MTT assay; type: cell-based
[13] = system: Candida parapsilosis; assay: Antifungal activity against Candida parapsilosis ATCC 22019 measured after 24 hrs by broth microdilution assay; type: functional; settings: Lodderomyces parapsilosis
[14] = system: Candida albicans; assay: Antifungal activity against fluconazole-resistant Candida albicans 632 assessed as inhibition of microbial growth after 24 hrs by broth microdilution method; type: functional
[15] = system: Candida albicans; assay: Antifungal activity against Candida albicans CPCC400616 measured after 24 hrs by broth microdilution assay; type: functional
[16] = system: PC-3; assay: Cytotoxicity against human PC3 cells assessed as reduction in cell viability incubated for 96 hrs by MTT assay; type: cell-based; settings: PC-3, 96 h
[17] = system: Pichia kudriavzevii; assay: Antifungal activity against Candida krusei AS2.1045 measured after 24 hrs by broth microdilution assay; type: functional
[18] = Hemolytic activity in rabbit RBC assessed as hemolysis ratio at 16 ug/ml measured after 3 hrs by microplate reader assay relative to control; type: ADME, cell-based, Oryctolagus cuniculus, Erythrocyte; settings: rabbit red blood cells (erythrocytes), at 16 µg/mL, read-out: Activity
[19] = system: Candida albicans; assay: Antifungal activity against Candida albicans ATCC SC5314 measured after 24 hrs by broth microdilution assay; type: functional
[20] = Hemolytic activity in rabbit RBC assessed as hemolysis ratio at 1 ug/ml measured after 3 hrs by microplate reader assay relative to control; type: ADME, cell-based, Oryctolagus cuniculus, Erythrocyte; settings: rabbit red blood cells (erythrocytes), at 1 µg/mL, read-out: Activity
[21] = system: MDA-MB-231; assay: Cytotoxicity against human MDA-MB-231 cells assessed as reduction in cell viability incubated for 96 hrs by MTT assay; settings: MDA-MB-231, 96 h
[22] = Hemolytic activity in rabbit RBC assessed as hemolysis ratio at 8 ug/ml measured after 3 hrs by microplate reader assay relative to control; type: ADME, cell-based, Oryctolagus cuniculus, Erythrocyte; settings: rabbit red blood cells (erythrocytes), at 8 µg/mL, read-out: Activity
[23] = system: Aspergillus fumigatus; assay: Antifungal activity against Aspergillus fumigatus CMGCC3.7795 measured after 72 hrs by broth microdilution assay; type: functional
[24] = Metabolic stability in mouse liver microsomes assessed as clearance; type: ADME, Microsome; settings: read-out: CLH
[25] = system: Candida albicans; assay: Fungicidal activity against Candida albicans CPCC400616 assessed as fungal killing incubated for 48 hrs followed by culturing on PDA plate for 24 hrs; type: functional; settings: time 72 hrs
[26] = system: Candida albicans; assay: Anti-biofilm activity in Candida albicans CPCC400616 assessed as inhibition of biofilm formation incubated for 24 hrs with 6 hrs precultured fungal suspension by XTT assay; type: functional
[27] = system: Candida albicans; assay: Anti-biofilm activity in Candida albicans CPCC400616 assessed as inhibition of biofilm formation incubated for 24 hrs with 24 hrs precultured fungal suspension by XTT assay; type: functional
[28] = system: Candida albicans; assay: Anti-biofilm activity in Candida albicans CPCC400616 assessed as inhibition of biofilm formation incubated for 24 hrs with 3 hrs precultured fungal suspension by XTT assay; type: functional
[29] = system: Candida albicans; assay: Anti-biofilm activity in Candida albicans CPCC400616 assessed as inhibition of biofilm formation incubated for 24 hrs with 1.5 hrs precultured fungal suspension by XTT assay; type: functional
[30] = Metabolic stability in mouse liver microsomes assessed as half life; type: ADME, Microsome

Row | Structure (SMILES) | MIC [1] | MIC [2] | MIC [3] | MIC [4] | Ratio [5] | hemolysis at 3 h, 4 ug/ml [6] | MIC [7] | MIC [8] | hemolysis at 3 h, 2 ug/ml [9] | MIC [10] | IC50 [11] | IC50 ([12]; read-out: IC50) | MIC [13] | MIC [14] | MIC [15] | IC50 ([16]; read-out: IC50) | MIC [17] | MIC [19] | IC50 [21] | MIC [23] | other results
1 | Cc1ccc(C)c([Se]C(Cn2ccnc2)c2ccc(Cl)cc2Cl)c1 (stereo unspecified) | 0.5 µg/mL (≈ 1.18 µM) | 0.13 µg/mL | 0.25 µg/mL | 2 µg/mL (≈ 4.71 µM) | 8 | 84.4% | 0.5 µg/mL (≈ 1.18 µM) | 0.25 µg/mL | 0.89% | 0.25 µg/mL | 6.95 µM | 27.2 µM | 0.5 µg/mL (≈ 1.18 µM) | 0.5 µg/mL | 0.25 µg/mL (≈ 0.589 µM) | 7.25 µM | 0.5 µg/mL (≈ 1.18 µM) | 0.03 µg/mL (≈ 0.0707 µM) | 6.61 µM | 16 µg/mL (≈ 37.7 µM) | hemolysis at 3 h, 16 ug/ml [18]: 100%; hemolysis at 3 h, 1 ug/ml [20]: 0%; hemolysis at 3 h, 8 ug/ml [22]: 100%
2 | CCc1ccccc1[Se]C(Cn1ccnc1)c1ccc(F)cc1F (stereo unspecified) | 1 µg/mL (≈ 2.56 µM) | 0.5 µg/mL | 0.5 µg/mL | 0.25 µg/mL (≈ 0.639 µM) | 8 | 93.6% | 0.5 µg/mL (≈ 1.28 µM) | 0.5 µg/mL | 0% | 2 µg/mL | 16.9 µM | 28.1 µM | 0.03 µg/mL (≈ 0.0767 µM) | 1 µg/mL | 0.06 µg/mL (≈ 0.153 µM) | 30.2 µM | 0.06 µg/mL (≈ 0.153 µM) | 0.03 µg/mL (≈ 0.0767 µM) | 26.2 µM | 16 µg/mL (≈ 40.9 µM) | CLint scaled [24]: 368 mL/min/kg; MFC99 [25]: 0.25 µg/mL (≈ 0.639 µM); MIC50 [26]: > 128 µg/mL; MIC80 [26]: > 128 µg/mL; MIC50 [27]: > 128 µg/mL; MIC80 [27]: > 128 µg/mL; hemolysis at 3 h, 16 ug/ml [18]: 100%; hemolysis at 3 h, 1 ug/ml [20]: 0%; MIC50 [28]: 16 µg/mL (≈ 40.9 µM); MIC80 [28]: > 128 µg/mL; hemolysis at 3 h, 8 ug/ml [22]: 100%; MIC50 [29]: 8 µg/mL (≈ 20.4 µM); MIC80 [29]: 128 µg/mL (≈ 327 µM); half-life [30]: 14.9 min
3 | CC(=O)O[C@H]1C(=O)[C@@]2(C)[C@H]([C@H](OC(=O)c3ccccc3)[C@]3(O)C[C@H](OC(=O)[C@H](O)[C@@H](NC(=O)c4ccccc4)c4ccccc4)C(C)=C1C3(C)C)[C@]1(OC(C)=O)CO[C@@H]1C[C@@H]2O [PACLITAXEL] | – | – | – | – | – | – | – | – | – | – | – | – | – | – | – | < 0.025 µM | – | – | < 0.001 µM | – | –
4 | COc1cccc2c1C(=O)c1c(O)c3c(c(O)c1C2=O)C[C@@](O)(C(=O)CO)C[C@@H]3O[C@H]1C[C@H](N)[C@H](O)[C@H](C)O1 [DOXORUBICIN] | – | – | – | – | – | – | – | – | – | – | < 0.125 µM | – | – | – | – | – | – | – | – | – | IC50 [12]: 2.64 µM; IC50 [16]: 0.64 µM
5 | Fc1cccc([Se]C(Cn2ccnc2)c2ccc(Cl)cc2Cl)c1 (stereo unspecified) | 0.13 µg/mL (≈ 0.314 µM) | 1 µg/mL | 2 µg/mL | 0.25 µg/mL (≈ 0.604 µM) | 8 | 87.7% | 1 µg/mL (≈ 2.41 µM) | 1 µg/mL | 0% | 1 µg/mL | 8.26 µM | 28.6 µM | 0.25 µg/mL (≈ 0.604 µM) | 0.5 µg/mL | 0.25 µg/mL (≈ 0.604 µM) | 20.4 µM | 0.13 µg/mL (≈ 0.314 µM) | 0.06 µg/mL (≈ 0.145 µM) | 13.4 µM | 4 µg/mL (≈ 9.66 µM) | CLint scaled [24]: 531 mL/min/kg; MIC50 [26]: 128 µg/mL (≈ 309 µM); MIC80 [26]: > 128 µg/mL; MIC50 [27]: > 128 µg/mL; MIC80 [27]: > 128 µg/mL; hemolysis at 3 h, 16 ug/ml [18]: 100%; hemolysis at 3 h, 1 ug/ml [20]: 0%; MIC50 [28]: 8 µg/mL (≈ 19.3 µM); MIC80 [28]: 128 µg/mL (≈ 309 µM); hemolysis at 3 h, 8 ug/ml [22]: 94.6%; MIC50 [29]: 4 µg/mL (≈ 9.66 µM); MIC80 [29]: 16 µg/mL (≈ 38.6 µM); half-life [30]: 10.3 min
6 | Cc1ccc([Se]C(Cn2ccnc2)c2ccc(Cl)cc2Cl)cc1 (stereo unspecified) | 0.13 µg/mL (≈ 0.317 µM) | 4 µg/mL | 32 µg/mL | 0.25 µg/mL (≈ 0.609 µM) | 8 | – | 0.25 µg/mL (≈ 0.609 µM) | 16 µg/mL | – | 8 µg/mL | – | – | 0.5 µg/mL (≈ 1.22 µM) | 4 µg/mL | 0.25 µg/mL (≈ 0.609 µM) | – | 0.5 µg/mL (≈ 1.22 µM) | 0.03 µg/mL (≈ 0.0731 µM) | – | 8 µg/mL (≈ 19.5 µM) | –
7 | CCc1ccccc1[Se]C(Cn1ccnc1)c1ccc(Cl)cc1Cl (stereo unspecified) | 0.5 µg/mL (≈ 1.18 µM) | 4 µg/mL | 2 µg/mL | 0.5 µg/mL (≈ 1.18 µM) | 8 | – | 0.13 µg/mL (≈ 0.306 µM) | 1 µg/mL | – | 4 µg/mL | – | – | 0.13 µg/mL (≈ 0.306 µM) | 16 µg/mL | 0.25 µg/mL (≈ 0.589 µM) | – | 0.5 µg/mL (≈ 1.18 µM) | 0.03 µg/mL (≈ 0.0707 µM) | – | 8 µg/mL (≈ 18.9 µM) | –
8 | Cc1ccccc1[Se]C(Cn1ccnc1)c1ccc(F)cc1F (stereo unspecified) | 0.5 µg/mL (≈ 1.33 µM) | 4 µg/mL | 8 µg/mL | 0.5 µg/mL (≈ 1.33 µM) | 8 | – | 1 µg/mL (≈ 2.65 µM) | 1 µg/mL | – | 2 µg/mL | – | – | 0.13 µg/mL (≈ 0.345 µM) | 4 µg/mL | 0.13 µg/mL (≈ 0.345 µM) | – | 0.02 µg/mL (≈ 0.053 µM) | 0.02 µg/mL (≈ 0.053 µM) | – | 8 µg/mL (≈ 21.2 µM) | –
9 | Cc1ccc([Se]C(Cn2ccnc2)c2ccc(F)cc2F)cc1 (stereo unspecified) | 0.13 µg/mL (≈ 0.345 µM) | 16 µg/mL | 2 µg/mL | 0.5 µg/mL (≈ 1.33 µM) | 8 | – | 0.5 µg/mL (≈ 1.33 µM) | 4 µg/mL | – | 8 µg/mL | – | – | 0.25 µg/mL (≈ 0.663 µM) | 1 µg/mL | 0.5 µg/mL (≈ 1.33 µM) | – | 0.13 µg/mL (≈ 0.345 µM) | 0.03 µg/mL (≈ 0.0795 µM) | – | 8 µg/mL (≈ 21.2 µM) | –
